# Measurements from patent publication US20040091860A1 (priority 1999, published 2004).
# Legend:
# rice POX genes [1] = assay: Inducibility of rice peroxidases to ethephon and MeJA (RNA gel blot analysis); assay type: in vivo, Oryza sativa cv. Nipponbare; conditions: for response of R2151 gene expression to stimuli: R2151 gene (group A1), FIG. 8(d), day 16, compared with control; for expression of R2693, R2329, S11222, prxRPA, R2576, R2184 and C52903 POX genes: leaf blades of 16-day-old seedlings, 1 mM ethephon or 25 μM MeJA solution sprayed onto whole plants, 48 hours, versus leaf blade without stress
# Description: Gene expression was analyzed by subjecting total RNAs isolated by the ATA method (Nagy et al., Reference 35) to RNA gel blot analysis (Ausubel et al., Reference 36).
# cDNA fragments containing 3′ untranslated regions of 21 rice POX genes indicated by boxes in FIG. 1 were amplified by the PCR method. The amplified fragments were used as probes specific to the respective POX genes for the RNA gel blot analysis.
# The above-described RNAs were subjected to electrophoresis, followed by transcription to a membrane (HyBond N, Amersham). The specific probes were allowed to hybridize, followed by washing for 5 min (once) and for 10 min (twice) in 2×SSC containing 0.1% SDS at room temperature, and then three times in 1×SSC containing 0.1% SDS for 15 min each at 65° C. Subsequently, the membrane was subjected to autoradiography at −80° C. using a film for autoradiography (XA OMT, Kodak) overnight or more. The recovered film was analyzed by the BAS2000 Bioimaging analyzer (Fuji Photo Film Co., Ltd.) or Phosphor Imager SI (Molecular Dynamics) in accordance with the manufacturer's instruction. The amount of RNA loaded was confirmed by monitoring the level of ribosome RNA (rRNA) stained by methylene blue. The expression amounts of the POXs were compared with each other with reference to the rRNA levels.
# 16-day-old seedlings were produced under the conditions described in Example 2. With these seedlings, the inducibility of rice peroxidases to ethephon (an ethylene release factor) and MeJA (a wound information transfer substance) was analyzed. For ethephon stimulus, 1 mM ethephon solution containing 0.05% ethanol was used. For MeJA stimulus, 25 μM MeJA solution containing 0.125% Triton X-100 was used. These solutions were sprayed onto whole plants, and maintained for 48 hours.
# RNAs were extracted from the leaf blades of stimulated rice plants in a manner as described in Example 2. For each POX, expression specificity was analyzed. As a control, leaf blade without a stress were used.
# rice POX genes [2] = system: rice POX genes; parameters: species or system Oryza sativa cv. Nipponbare
# POX genes = assay type: in vivo, Oryza sativa cv. Nipponbare; conditions: probenazole-treated rice, before and 2, 3, 4 and 5 days after rice blast fungus treatment; FIG. 24
# [3] = system: rice blast fungus (M. grisea race(003)); assay type: in vivo, Magnaporthe grisea; conditions: compatible rice treated with probenazole (100 mg/ml) two days before M. grisea race(003), 1×10^5 spores/ml; untreated compatible rice: days 4 and 5
Structure (SMILES),response of R2151 gene expression to stimuli (rice POX genes [1]),"expression of R2693, R2329, S11222, prxRPA, R2576, R2184 and C52903 POX genes (rice POX genes [1])",other results
"O=P(O)(O)CCCl [Ethephon, ethephon]",reducible responses,induced expression,
"CC/C=C\CC1C(=O)CCC1CC(=O)OC (centres unmarked) [MeJA, methyl jasmonate]",reducible responses,induced expression,
"C[n+]1ccc(-c2cc[n+](C)cc2)cc1 [paraquat, 1,1-dimethyl-4,4-dipyridinium dichloride]",,,"expression of R2329, prxRPA, R2576 and C52903 (rice POX genes [2]): induced; expression of apoplastic (R2329, prx2576 and R2576) and vacuolar (e.g., R2184 and C52903) POXs (rice POX genes [2]): induced the expression"
C=CCOC1=NS(=O)(=O)c2ccccc21 [probenazole],,,"expression patterns with E2184, R2576, R2693 and R2329 as probes (POX genes): significantly similar to the transition pattern of formation of lesion spots; lesion spot formation found on days after rice blast fungus treatment [3]: 2 to 3 days"
